Results published in US10959979B2, “Small molecules against cancer” (Biokine Therapeutics Ltd., priority 2015, dated 2021).
“Also recorded” adds a separate entry of the source.

How the values were obtained:
cancer cells = settings: literature reports; cited from earlier work
MCP-1 = MCP-1 (Homo sapiens, UniProt P13500); experiment: Migration of THP-1 cells towards MCP-1 (Transwell migration assay); format: cell-based; settings: BKT300 at 78% purity
Procedure: (§1) 600 μl of RPMI medium was added to the lower chambers of Transwell® transmigration plates, supplemented with 2 μg/ml of MIP3a, 100 ng/ml of SDF-1 or 10 ng/ml of MCP-1. The tested small molecule was added to the lower chambers at the indicated concentration, except in control samples. The MIP3a, SDF-1 or MCP-1 was incubated with the small molecule for 30 minutes at room temperature before the initiation of the migration assay. Following 30 minutes of incubation 2×10^5 immune cells were added to the upper chambers of the transmigration plates in a total volume of 100 μl. Cells which migrated within 3 hours to the bottom chamber of the Transwell® plates were counted using a FACScalibur™ flow cytometer.
To evaluate migration towards MCP-1, THP-1 cells were re-suspended in RPMI medium containing 1% fetal calf serum (FCS).

SDF-1 = SDF-1 (Homo sapiens, UniProt P48061); experiment: Migration of Jurkat cells towards SDF-1 (Transwell migration assay); format: cell-based; settings: for Selectivity of inhibition of SDF-1 function over MCP-1 and/or MIP3a function: at a concentration of about 10 μg/ml
Procedure: as §1
To evaluate migration towards SDF-1, Jurkat cells were re-suspended in RPMI medium containing 1% fetal calf serum (FCS).

MIP3a = MIP3a (Homo sapiens, UniProt P78556); experiment: Migration of CD4+ T-cells toward MIP3a (Transwell migration assay); format: cell-based
Procedure: as §1
To evaluate migration toward MIP3a, peripheral blood mononuclear cells (PBMCs) were isolated from heparinized venous blood by centrifugation over Ficoll Histopaque® 1077. CD4+ T cells were further isolated with RosetteSep™ human CD4+ T-cell Enrichment cocktail (StemCell Technologies Inc.), according to the manufacturer's instructions. CD4+ T cells were re-suspended in RPMI medium containing 1% fetal calf serum (FCS).

[1] = tested on: MV4-11 human acute myeloid leukemia cells; experiment: Cancer cell viability, FACS with propidium iodide staining; format: cell-based; settings: 24 hours
Procedure: In order to assess the effect of compounds of Table 2 on cancer cell viability, the in vitro effect of the compounds on MV4-11 human acute myeloid leukemia cells was evaluated. The cancer cells were incubated in RPMI cell medium with 1% fetal calf serum (FCS) at a concentration of 2×10^5 cells/well at a final volume of 250 μl in 96-well plate. The compounds were added to the cells at the indicated concentrations. The cells were incubated for 24 hours and the number of dead and viable cells was then evaluated by fluorescence-activated cell sorting (FACS), using propidium iodide (PI) staining.

[2] = tested on: MCP-1 expression in adipocytes; settings: reported by Kuroyanagi et al.; cited from earlier work
Legionella = settings: cited from earlier work

Chain of MCP-1 (P13500 24-99): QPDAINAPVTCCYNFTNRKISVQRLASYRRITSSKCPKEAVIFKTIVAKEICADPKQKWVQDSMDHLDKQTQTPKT
Chain of SDF-1 (P48061 22-93): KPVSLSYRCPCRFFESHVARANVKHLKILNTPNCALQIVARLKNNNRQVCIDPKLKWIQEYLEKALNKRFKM
Chain of MIP3a (P78556 27-96): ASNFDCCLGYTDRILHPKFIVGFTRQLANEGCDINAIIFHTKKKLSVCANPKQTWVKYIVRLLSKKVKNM

Compound | Inhibition of migration of monocytic THP-1 cells towards MCP-1 (MCP-1; 10 μg/ml) | Inhibition of migration of monocytic THP-1 cells towards MCP-1 (MCP-1; 50 μg/ml) | Inhibition of migration of lymphocytic Jurkat cells towards SDF-1 (SDF-1; 10 μg/ml, BKT300 at 78% purity) | Inhibition of CD4+ T-cell migration towards MIP3a (MIP3a; 50 μg/ml, BKT300 at 78% purity) | Inhibition of CD4+ T-cell migration towards MIP3a (MIP3a; 10 μg/ml) | further results
CC1(C)CC[C@]2(C(=O)O)CC[C@]3(C)C(=CC[C@@H]4[C@@]5(C)C[C@@H](O)[C@H](O)[C@@](C)(CO)[C@@H]5CC[C@]43C)[C@@H]2C1 [BKT216, Arjunolic acid] | partial inhibition | strong inhibition |  |  |  | Inhibition of cancer cells (cancer cells): inhibit cancer cells
C/C(=C/COc1c2occc2cc2ccc(=O)oc12)CO [BKT208, Trichoclin] |  |  | significantly inhibited |  |  | 
CC(C)=CCc1c(O[C@@H]2O[C@H](CO)[C@@H](O)[C@H](O)[C@H]2O)cc(O)c2c1O[C@H](c1ccc(O)cc1)CC2=O [BKT201] | no apparent effect | strong inhibition | significantly inhibited; also recorded: strong inhibition | completely inhibited |  | Selectivity of inhibition of SDF-1 function over MCP-1 and/or MIP3a function (SDF-1): relatively selective manner
CCCCCC=CC=CC(=O)CCCCCCCC(=O)O [BKT205] | no apparent effect | strong inhibition | significantly inhibited; also recorded: strong inhibition | completely inhibited |  | Selectivity of inhibition of SDF-1 function over MCP-1 and/or MIP3a function (SDF-1): relatively selective manner
CCC/C=C\C/C=C\CCCCCCCc1cccc(O)c1C(=O)O [BKT206] | partial inhibition | strong inhibition | significantly inhibited; also recorded: strong inhibition |  | completely inhibited | Cell death of MV4-11 cells ([1]; 10 μg/ml): induced cell death
Cc1cc(O)c2c(=O)c3c(O)cc(O)c4c5c(O)cc(O)c6c(=O)c7c(O)cc(C)c8c1c2c(c34)c(c78)c65 [BKT203, Hypericin] |  |  | significantly inhibited; also recorded: strong inhibition |  | completely inhibited | 
O=C(O)c1cc(O)c2c(c1)[C@H]([C@H]1c3cc(C(=O)O)cc(O)c3C(=O)c3c(O[C@@H]4O[C@H](CO)[C@@H](O)[C@H](O)[C@H]4O)cccc31)c1cccc(O[C@@H]3O[C@H](CO)[C@@H](O)[C@H](O)[C@H]3O)c1C2=O [BKT210, Sennoside A] |  |  | significantly inhibited | completely inhibited | significantly inhibited | 
CC(C)=CCC/C(C)=C/COc1ccc2ccc(=O)oc2c1 [BKT215, Auraptene] |  |  |  |  |  | Inhibition of cancer cells (cancer cells): inhibit cancer cells; MCP-1 expression in adipocytes [2]: suppress MCP-1 expression; Cell death of MV4-11 cells ([1]; 20 am (equivalent to 6 μg/ml)): induced cell death
CCCCCC(=O)Cc1cc(O)cc(O)c1Oc1cc(O)cc2cc(CCCCC)oc(=O)c12 [8-(2,4-dihydroxy-6-(2-oxoheptyl)-phenoxy)-6-hydroxy-3-pentyl-1H-isochromen-1-one] |  |  |  |  |  | Antibacterial activity against Legionella (Legionella): potent antibacterial activity
CC1CCC2=C(CCCC2(C)C(=O)O)C1(C)CCc1ccoc1 (stereo not drawn) [BKT211] | complete inhibition | strong inhibition | significantly inhibited; also recorded: strong inhibition |  |  | Cell death of MV4-11 cells ([1]; 10 μg/ml): induced cell death
CCCCCCCCC(=O)/C=C/C=C/C(=O)CCCC(=O)O [BKT209] | no apparent effect | strong inhibition | significantly inhibited; also recorded: strong inhibition | completely inhibited |  | Selectivity of inhibition of SDF-1 function over MCP-1 and/or MIP3a function (SDF-1): relatively selective manner
Cc1c(O)c(C)c2c(c1O)C(=O)CC(c1ccc(O)c(O)c1)O2 (stereo not drawn) [BKT204, Cyrtominetin] | partial inhibition | strong inhibition | significantly inhibited |  |  | 
CC(C)=CCc1cc(OC2O[C@H](CO)[C@@H](O)[C@H](O)[C@H]2O)cc(CC=C(C)C)c1C(O)C(=O)O (stereo partly drawn) [BKT213] |  |  | significantly inhibited; also recorded: strong inhibition | completely inhibited |  | Selectivity of inhibition of SDF-1 function over MCP-1 and/or MIP3a function (SDF-1): relatively selective manner
C=C1CCC2C(C)(C)C(O)CCC2(C)C1COc1ccc2ccc(=O)oc2c1 (stereo not drawn) [BKT202] |  |  |  | completely inhibited | significantly inhibited | 
C=C[C@H](O)C#CC#C[C@@H](O)/C=C\CCCCCCC [BKT212, Falcarindiol] |  |  | significantly inhibited; also recorded: strong inhibition |  | completely inhibited | Inhibition of cancer cells (cancer cells): inhibit cancer cells
CCCCCc1cc2cc(O)cc(Oc3c(O)cc(O)c(C(=O)O)c3CCCCC)c2c(=O)o1 [BKT400] |  |  |  |  |  | Inhibition of migration of lymphocytic Jurkat cells towards SDF-1 (SDF-1; 1 and 10 μg/ml tested (FIG. 15)): inhibit the migration
COC(=O)c1c(O)cc2c(c1C)C(=O)c1c(O)cccc1C2=O [BKT207, Aloesaponarin I] |  |  | significantly inhibited; also recorded: strong inhibition |  | completely inhibited | 
